According to US20100093616A1 (priority 2005, published 2010):

How the values were obtained:
Assay type in all cases: in vivo, Lewis Rats
[1] = test system: Experimental Autoimmune Encephalytis (EAE); test: Prophylactic scheme in EAE animal model (Example 2); conditions: for Clinical scores maximum / Clinical scores minimum / Incidence (%): EGF/GHRP-6 200-740, EGF 200, GHRP-6 740 μg/kg/day; for N° of perivascular inflammatory infiltrates (Means ± SD): brain and spinal cord, day 40, EGF/GHRP-6 200-740, EGF 200, GHRP-6 740 μg/kg/day; for Incidence (%): i.p. days -10 to -1 before first immunization, 8 rats per group
From the text: (§1) This prophylactic scheme was followed for 10 days (−10 to −1 day before the first immunization), using the intraperitoneal administration route. Clinical scores was based on the following grading: 0; no symptom, 1; tail paralysis, 2; paralysis of any of the hind limbs, 3; full paralysis of the hind limbs, 4; complete paralysis of the fore and hind limbs 5; moribund or death. Weight loss and vesical and rectal sphincter incontinency, which are also clinical signs of the disease, are scored by adding 0.5 to the clinical index previously described. Forty days after the first immunization the animals were anesthetized and euthanized, the encephalon and spinal cord were processed for histopathological study (10% de formalin, H & E y Luxol Blue staining). For the histopathological analysis the following parameters were consider: number and size of perivascular inflammatory infiltrates, number of demyelination lesions, number of apoptotic neurons and glial cells and astrocytes reactivity. The microscopic study was blindly conducted.

[2] = test system: Experimental Autoimmune Encephalytis (EAE); test: Therapeutical effect in EAE biomodel (Example 1); conditions: therapeutical scheme; for N° of perivascular inflammatory infiltrates (Means ± SD): brain and spinal cord, day 40; for Incidence (%): i.p. 10 days from day 10 after first immunization, EGF/GHRP-6 200-740 μg/kg/day, EGF 200 μg/kg/day, GHRP-6 740 μg/kg/day, 8 rats per group
Experimental: as §1, with “Female Lewis Rats (130 g), were subcutaneously immunized with guinea pig spinal cord homogenate (5 mg) in PBS (50%) and complete Freund adjuvant (50%), during days 0 and 6. […] This” for “This”, “therapeutical” for “prophylactic”, “days,” for “days (−10 to −1 day before the first immunization),”, “using” for “using the”, “administration.” for “administration route.”

[3] = test system: Experimental Autoimmune Encephalytis (EAE); test: Dose study of the combination in EAE model, therapeutical scheme (Example 3); conditions: EGF component of the combination
Experimental: Looking for a range of doses for the pharmaceutical combination that would be efficient for the therapeutic effects, it was used in the afore mentioned EAE model Female Lewis Rats (130 g), were subcutaneously immunized with guinea pig spinal cord homogenate (5 mg) in PBS (50%) and complete Freund adjuvant (50%), during days 0 and 6.
as §1, with “therapeutical” for “prophylactic”, “days,” for “days (−10 to −1 day before the first immunization),”, “using” for “using the”, “administration.” for “administration route.”

[4] = i.p. days -10 to -1, EGF/GHRP-6 200-740, EGF 200, GHRP-6 740 μg/kg/day
[5] = EGF/GHRP-6 200-740, EGF 200, GHRP-6 740 μg/kg/day
[6] = i.p. 10 days, EGF/GHRP-6 200-740, EGF 200, GHRP-6 740 μg/kg/day
[7] = i.p. 10 days, EGF/GHRP-6 200-740, EGF 200, GHRP-6 740 μg/kg/day, scale 0-5

Substance | Clinical scores maximum ([1]; scale 0-5) | Clinical scores minimum ([1]; scale 0-5) | N° of perivascular inflammatory infiltrates (Means ± SD) [1] | Days of Debut (Mean ± SD) [1, 4] [days] | Clinical scores Means ± SD (mean clinical index) ([1]; i.p. days -10 to -1, EGF/GHRP-6 200-740, EGF 200, GHRP-6 740 μg/kg/day, scale 0-5) | Incidence (%) [1] [%] | N° of perivascular inflammatory infiltrates (Means ± SD) [2, 5] | Incidence (%) [2] [%] | Days of Debut (Mean ± SD) [2, 6] [days] | Disease duration [2, 6] | Clinical Scores Mean ± SD (mean clinical index) [2, 7] | Clinical scores maximum [2, 7] | Clinical scores minimum [2, 7] | dose range that maintains usefulness of the combination for protection against induction of EAE [3] [µg/kg/day]
His-D-Trp-Ala-Trp-D-Phe-Lys-NH sub 2 [GHRP-6] | 4 | 1 | 2.7 ± 1.95 | 11.7 ± 2.3 | 2.7±1.03 | 100 | 2.25 ± 1.25 | 100 | 13.7 ± 2.3 | 15.5 ± 6.7 | 1.5±1.6 | 4 | 0.5 | –
Epidermal Growth Factor [EGF] | 4 | 1 | 4 ± 1.6 | 11.5 ± 0.57 | – | 100 | 4.5 ± 1.9 | 100 | 12.5 ± 0.57 | 12.7 ± 4.1 | – | – | 1 | 50 to 400
